In PMC10636171 (Cell Death & Disease, 2023):

Columns and labels:
Assay in all cases: HTRF/ADP-Glo kinase selectivity panel
Format in all cases: biochemical
Details in all cases: 500 nM, read-out: 1D228(%inhibition)@500nM
KDR = target: T1, KDR (Homo sapiens, UniProt P35968)
T1 construct: purchased Invitrogen (c-Met, TRKA, TRKB, TRKC)
Experimental: (§1) The compound was serial diluted from 10 mM stock in DMSO, dilute the test compound to 0.1 mM (200 times the specified test concentration). 2 × ATP & Substrate solution and 2 × kinase & Metal solution were prepared using assay buffer; Transfer 25 nL compound to 384 assay plate by Echo 655; After centrifugation, add 2.5 μL 2 × kinase/metal ion solution 384 assay plate, and incubate at 25 °C for 10 min. 2 × XL665 & Antibody solution were prepared with detection buffer; 5 μL of Kinase Detection Reagent was added to the well, and incubated for 60 min at 25 °C; The fluorescence signals of 620 nm (Cryptate) and 665 nm (XL665) were read by microtiter plate reader; […]

HCK = target: T2, HCK (Homo sapiens, UniProt P08631)
T2 construct: purchased Invitrogen (c-Met, TRKA, TRKB, TRKC)
Experimental: as §1

TXK = target: T3, TXK (Homo sapiens, UniProt P42681)
T3 construct: purchased Invitrogen (c-Met, TRKA, TRKB, TRKC)
Experimental: as §1

HER2 = target: T4, HER2 (Homo sapiens, UniProt P04626)
T4 construct: purchased Invitrogen (c-Met, TRKA, TRKB, TRKC)
Experimental: as §1

FGFR3 = target: T5, FGFR3 (Homo sapiens, UniProt P22607)
T5 construct: purchased Invitrogen (c-Met, TRKA, TRKB, TRKC)
Experimental: as §1

ABL2 = target: T6, ABL2 (Homo sapiens, UniProt P42684)
T6 construct: purchased Invitrogen (c-Met, TRKA, TRKB, TRKC)
Experimental: as §1

PDGFRα = target: T7, PDGFRα (Homo sapiens, UniProt P16234)
T7 construct: purchased Invitrogen (c-Met, TRKA, TRKB, TRKC)
Experimental: as §1

EPHA4 = target: T8, EPHA4 (Homo sapiens, UniProt P54764)
T8 construct: purchased Invitrogen (c-Met, TRKA, TRKB, TRKC)
T8 sequence (P54764 20-986): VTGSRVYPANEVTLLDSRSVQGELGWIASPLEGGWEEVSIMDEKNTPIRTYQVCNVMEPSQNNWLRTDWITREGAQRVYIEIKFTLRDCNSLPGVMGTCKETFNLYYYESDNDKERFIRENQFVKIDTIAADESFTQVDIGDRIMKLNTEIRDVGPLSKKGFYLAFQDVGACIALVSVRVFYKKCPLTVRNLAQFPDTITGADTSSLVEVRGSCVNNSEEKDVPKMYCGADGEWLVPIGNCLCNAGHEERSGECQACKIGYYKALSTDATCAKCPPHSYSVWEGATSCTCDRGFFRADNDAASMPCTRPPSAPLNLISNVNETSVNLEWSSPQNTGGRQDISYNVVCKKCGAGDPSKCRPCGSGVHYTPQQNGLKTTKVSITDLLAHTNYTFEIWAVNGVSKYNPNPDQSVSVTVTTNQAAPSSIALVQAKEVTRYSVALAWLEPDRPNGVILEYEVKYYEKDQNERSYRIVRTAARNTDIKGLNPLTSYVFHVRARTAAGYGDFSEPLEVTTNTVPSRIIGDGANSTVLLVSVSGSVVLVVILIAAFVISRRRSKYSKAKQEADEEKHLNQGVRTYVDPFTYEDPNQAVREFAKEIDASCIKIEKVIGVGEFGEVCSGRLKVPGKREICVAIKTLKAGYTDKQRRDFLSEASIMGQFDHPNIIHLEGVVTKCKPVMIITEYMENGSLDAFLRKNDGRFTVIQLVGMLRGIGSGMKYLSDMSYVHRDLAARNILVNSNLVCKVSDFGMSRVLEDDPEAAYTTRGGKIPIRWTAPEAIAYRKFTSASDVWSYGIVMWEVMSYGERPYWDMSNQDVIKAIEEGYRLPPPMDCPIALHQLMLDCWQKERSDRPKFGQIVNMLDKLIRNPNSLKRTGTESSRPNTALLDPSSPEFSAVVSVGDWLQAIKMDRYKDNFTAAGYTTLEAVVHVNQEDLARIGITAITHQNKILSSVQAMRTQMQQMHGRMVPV
Experimental: as §1

ROS1 = target: T9, ROS1 (Homo sapiens, UniProt P08922)
T9 construct: purchased Invitrogen (c-Met, TRKA, TRKB, TRKC)
Experimental: as §1

CSF1R = target: T10, CSF1R (Homo sapiens, UniProt P07333)
T10 construct: purchased Invitrogen (c-Met, TRKA, TRKB, TRKC)
Experimental: as §1

EPHA1 = target: T11, EPHA1 (Homo sapiens, UniProt P21709)
T11 construct: purchased Invitrogen (c-Met, TRKA, TRKB, TRKC)
Experimental: as §1

FGR = target: T12, FGR (Homo sapiens, UniProt P09769)
T12 construct: purchased Invitrogen (c-Met, TRKA, TRKB, TRKC)
T12 sequence (P09769 whole entry): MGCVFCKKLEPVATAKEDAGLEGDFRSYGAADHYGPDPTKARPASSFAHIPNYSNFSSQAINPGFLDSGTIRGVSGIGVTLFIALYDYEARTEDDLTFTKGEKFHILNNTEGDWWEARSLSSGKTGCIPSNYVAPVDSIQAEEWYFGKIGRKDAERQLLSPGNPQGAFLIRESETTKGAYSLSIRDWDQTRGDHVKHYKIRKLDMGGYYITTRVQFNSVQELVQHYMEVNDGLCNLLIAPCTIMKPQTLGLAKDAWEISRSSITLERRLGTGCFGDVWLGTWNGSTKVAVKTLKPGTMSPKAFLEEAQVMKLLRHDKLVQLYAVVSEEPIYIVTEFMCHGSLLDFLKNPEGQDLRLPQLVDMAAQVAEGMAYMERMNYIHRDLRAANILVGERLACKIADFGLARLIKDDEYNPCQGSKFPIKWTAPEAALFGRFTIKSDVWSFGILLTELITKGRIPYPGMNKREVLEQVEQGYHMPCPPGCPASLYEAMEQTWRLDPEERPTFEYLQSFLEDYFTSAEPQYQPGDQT
Experimental: as §1

ABL1 = target: T13, ABL1 (Homo sapiens, UniProt P00519)
T13 construct: purchased Invitrogen (c-Met, TRKA, TRKB, TRKC)
Experimental: as §1

MET = target: T14, MET (Homo sapiens, UniProt P08581)
T14 construct: purchased Invitrogen (c-Met, TRKA, TRKB, TRKC)
T14 sequence (P08581 25-1390): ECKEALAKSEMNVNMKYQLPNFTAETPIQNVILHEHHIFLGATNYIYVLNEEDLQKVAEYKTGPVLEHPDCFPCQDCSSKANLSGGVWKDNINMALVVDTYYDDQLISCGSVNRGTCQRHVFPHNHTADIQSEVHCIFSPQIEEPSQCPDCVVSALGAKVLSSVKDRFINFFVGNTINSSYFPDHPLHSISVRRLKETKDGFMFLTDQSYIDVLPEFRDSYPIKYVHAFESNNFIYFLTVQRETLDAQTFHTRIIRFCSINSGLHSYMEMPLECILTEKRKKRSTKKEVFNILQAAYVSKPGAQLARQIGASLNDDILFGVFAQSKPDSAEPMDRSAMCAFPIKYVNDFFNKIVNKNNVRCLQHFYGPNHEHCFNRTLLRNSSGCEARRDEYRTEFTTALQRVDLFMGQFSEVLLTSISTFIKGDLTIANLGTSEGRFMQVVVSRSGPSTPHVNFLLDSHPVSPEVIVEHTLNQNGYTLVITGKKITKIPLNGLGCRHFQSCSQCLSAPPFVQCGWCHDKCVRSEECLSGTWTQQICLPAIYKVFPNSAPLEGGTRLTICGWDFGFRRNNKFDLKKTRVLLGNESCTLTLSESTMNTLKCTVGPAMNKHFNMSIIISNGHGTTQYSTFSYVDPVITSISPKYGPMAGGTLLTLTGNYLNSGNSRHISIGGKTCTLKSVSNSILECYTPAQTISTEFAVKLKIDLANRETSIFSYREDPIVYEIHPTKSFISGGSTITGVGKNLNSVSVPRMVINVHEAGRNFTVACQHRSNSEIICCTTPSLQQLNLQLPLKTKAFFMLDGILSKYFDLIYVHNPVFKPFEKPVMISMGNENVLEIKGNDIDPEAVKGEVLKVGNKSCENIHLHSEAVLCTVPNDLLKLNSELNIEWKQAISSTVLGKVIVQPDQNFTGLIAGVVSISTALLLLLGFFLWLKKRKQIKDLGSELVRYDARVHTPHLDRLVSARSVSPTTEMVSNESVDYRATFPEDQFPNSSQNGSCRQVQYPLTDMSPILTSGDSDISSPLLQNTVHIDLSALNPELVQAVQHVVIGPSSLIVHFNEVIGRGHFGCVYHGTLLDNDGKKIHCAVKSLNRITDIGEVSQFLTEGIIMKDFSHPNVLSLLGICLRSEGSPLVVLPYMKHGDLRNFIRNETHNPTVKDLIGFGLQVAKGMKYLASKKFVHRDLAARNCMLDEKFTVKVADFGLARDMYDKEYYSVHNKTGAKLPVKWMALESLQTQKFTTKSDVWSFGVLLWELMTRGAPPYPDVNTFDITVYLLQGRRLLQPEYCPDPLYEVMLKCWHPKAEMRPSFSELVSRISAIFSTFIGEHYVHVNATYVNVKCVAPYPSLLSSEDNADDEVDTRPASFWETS
Experimental: as §1

JAK3 = target: T15, JAK3 (Homo sapiens, UniProt P52333)
T15 construct: purchased Invitrogen (c-Met, TRKA, TRKB, TRKC)
Experimental: as §1

RON = target: T16, RON (Homo sapiens, UniProt Q04912)
T16 construct: purchased Invitrogen (c-Met, TRKA, TRKB, TRKC)
Experimental: as §1

SRM = target: T17, SRM (Homo sapiens, UniProt Q9H3Y6)
T17 construct: purchased Invitrogen (c-Met, TRKA, TRKB, TRKC)
Experimental: as §1

FYN [a] = target: T18, FYN [a] (Homo sapiens, UniProt P06241)
T18 construct: purchased Invitrogen (c-Met, TRKA, TRKB, TRKC)
T18 sequence (P06241 whole entry): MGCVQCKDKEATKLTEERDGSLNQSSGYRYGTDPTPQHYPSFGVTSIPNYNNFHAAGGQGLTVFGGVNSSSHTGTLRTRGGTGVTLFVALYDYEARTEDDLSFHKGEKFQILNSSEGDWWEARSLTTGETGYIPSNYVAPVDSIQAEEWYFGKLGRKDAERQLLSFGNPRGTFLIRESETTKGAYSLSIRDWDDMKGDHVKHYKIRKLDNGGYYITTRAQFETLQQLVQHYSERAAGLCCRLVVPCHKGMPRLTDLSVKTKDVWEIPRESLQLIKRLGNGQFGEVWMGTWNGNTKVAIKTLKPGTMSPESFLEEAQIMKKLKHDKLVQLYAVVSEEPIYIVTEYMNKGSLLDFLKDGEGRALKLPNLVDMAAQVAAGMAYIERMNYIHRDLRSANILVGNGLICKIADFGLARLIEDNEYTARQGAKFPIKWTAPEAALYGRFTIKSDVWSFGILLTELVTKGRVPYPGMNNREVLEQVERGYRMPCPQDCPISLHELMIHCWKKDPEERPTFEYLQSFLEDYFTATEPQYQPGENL
Experimental: as §1

TRKA = target: T19, TRKA (Homo sapiens, UniProt P04629)
T19 construct: purchased Invitrogen (c-Met, TRKA, TRKB, TRKC)
Experimental: as §1

ITK = target: T20, ITK (Homo sapiens, UniProt Q08881)
T20 construct: purchased Invitrogen (c-Met, TRKA, TRKB, TRKC)
T20 sequence (Q08881 whole entry): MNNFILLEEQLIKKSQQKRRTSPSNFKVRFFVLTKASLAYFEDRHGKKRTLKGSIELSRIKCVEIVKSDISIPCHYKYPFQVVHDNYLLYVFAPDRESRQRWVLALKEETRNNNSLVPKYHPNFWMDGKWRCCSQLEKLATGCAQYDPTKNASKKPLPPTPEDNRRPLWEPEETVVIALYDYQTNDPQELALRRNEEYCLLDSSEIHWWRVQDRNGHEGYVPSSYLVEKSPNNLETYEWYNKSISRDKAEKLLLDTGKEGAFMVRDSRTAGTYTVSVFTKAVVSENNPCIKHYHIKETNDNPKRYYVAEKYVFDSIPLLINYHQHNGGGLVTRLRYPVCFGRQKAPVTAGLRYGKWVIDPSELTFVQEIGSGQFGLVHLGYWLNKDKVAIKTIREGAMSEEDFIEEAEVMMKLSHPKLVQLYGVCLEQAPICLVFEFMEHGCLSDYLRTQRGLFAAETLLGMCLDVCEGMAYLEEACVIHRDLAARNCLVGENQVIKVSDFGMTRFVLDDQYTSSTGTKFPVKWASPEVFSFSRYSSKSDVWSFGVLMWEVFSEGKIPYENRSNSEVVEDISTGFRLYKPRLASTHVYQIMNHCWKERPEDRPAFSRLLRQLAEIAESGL
Experimental: as §1

MUSK = target: T21, MUSK (Homo sapiens, UniProt O15146)
T21 construct: purchased Invitrogen (c-Met, TRKA, TRKB, TRKC)
Experimental: as §1

FLT1 = target: T22, FLT1 (Homo sapiens, UniProt P17948)
T22 construct: purchased Invitrogen (c-Met, TRKA, TRKB, TRKC)
Experimental: as §1

PYK2 = target: T23, PYK2 (Homo sapiens, UniProt Q14289)
T23 construct: purchased Invitrogen (c-Met, TRKA, TRKB, TRKC)
Experimental: as §1

FLT4 = target: T24, FLT4 (Homo sapiens, UniProt P35916)
T24 construct: purchased Invitrogen (c-Met, TRKA, TRKB, TRKC)
Experimental: as §1

LYNa = target: T25, LYNa (Homo sapiens, UniProt P07948)
T25 construct: purchased Invitrogen (c-Met, TRKA, TRKB, TRKC)
Experimental: as §1

FES = target: T26, FES (Homo sapiens, UniProt P07332)
T26 construct: purchased Invitrogen (c-Met, TRKA, TRKB, TRKC)
Experimental: as §1

EPHA5 = target: T27, EPHA5 (Homo sapiens, UniProt P54756)
T27 construct: purchased Invitrogen (c-Met, TRKA, TRKB, TRKC)
Experimental: as §1

BRK = target: T28, BRK (Homo sapiens, UniProt Q13882)
T28 construct: purchased Invitrogen (c-Met, TRKA, TRKB, TRKC)
Experimental: as §1

TYRO3 = target: T29, TYRO3 (Homo sapiens, UniProt Q06418)
T29 construct: purchased Invitrogen (c-Met, TRKA, TRKB, TRKC)
Experimental: as §1

FGFR2 = target: T30, FGFR2 (Homo sapiens, UniProt P21802)
T30 construct: purchased Invitrogen (c-Met, TRKA, TRKB, TRKC)
T30 sequence (P21802 22-821): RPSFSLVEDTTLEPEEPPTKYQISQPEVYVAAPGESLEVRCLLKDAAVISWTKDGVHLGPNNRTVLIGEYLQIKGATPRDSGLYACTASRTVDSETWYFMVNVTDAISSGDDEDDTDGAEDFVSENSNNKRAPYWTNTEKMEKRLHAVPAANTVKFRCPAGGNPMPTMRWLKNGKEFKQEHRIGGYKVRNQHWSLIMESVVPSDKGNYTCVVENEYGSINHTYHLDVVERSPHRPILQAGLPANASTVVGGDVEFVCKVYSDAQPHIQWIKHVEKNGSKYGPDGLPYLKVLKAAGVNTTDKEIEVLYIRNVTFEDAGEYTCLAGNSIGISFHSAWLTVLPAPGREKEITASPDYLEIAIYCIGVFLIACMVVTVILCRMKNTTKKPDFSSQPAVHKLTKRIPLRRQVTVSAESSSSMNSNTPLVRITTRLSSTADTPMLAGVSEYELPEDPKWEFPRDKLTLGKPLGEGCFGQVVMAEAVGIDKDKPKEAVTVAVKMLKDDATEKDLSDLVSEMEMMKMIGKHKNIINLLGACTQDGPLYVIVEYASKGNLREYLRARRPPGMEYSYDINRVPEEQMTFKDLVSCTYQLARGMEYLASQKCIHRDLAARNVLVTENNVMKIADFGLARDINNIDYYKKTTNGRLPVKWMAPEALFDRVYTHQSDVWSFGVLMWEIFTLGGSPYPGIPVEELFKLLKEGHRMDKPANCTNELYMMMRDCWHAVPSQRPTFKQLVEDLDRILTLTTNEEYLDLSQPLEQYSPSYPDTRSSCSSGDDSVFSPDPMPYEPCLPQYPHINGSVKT
Experimental: as §1

FAK = target: T31, FAK (Homo sapiens, UniProt Q05397)
T31 construct: purchased Invitrogen (c-Met, TRKA, TRKB, TRKC)
Experimental: as §1

YES = target: T32, YES (Homo sapiens, UniProt P07947)
T32 construct: purchased Invitrogen (c-Met, TRKA, TRKB, TRKC)
Experimental: as §1

EPHA3 = target: T33, EPHA3 (Homo sapiens, UniProt P29320)
T33 construct: purchased Invitrogen (c-Met, TRKA, TRKB, TRKC)
Experimental: as §1

JAK1 = target: T34, JAK1 (Homo sapiens, UniProt P23458)
T34 construct: purchased Invitrogen (c-Met, TRKA, TRKB, TRKC)
Experimental: as §1

EPHA6 = target: T35, EPHA6 (Homo sapiens, UniProt Q9UF33)
T35 construct: purchased Invitrogen (c-Met, TRKA, TRKB, TRKC)
Experimental: as §1

BTK = target: T36, BTK (Homo sapiens, UniProt Q06187)
T36 construct: purchased Invitrogen (c-Met, TRKA, TRKB, TRKC)
Experimental: as §1

TRKB = target: T37, TRKB (Homo sapiens, UniProt Q16620)
T37 construct: purchased Invitrogen
Experimental: as §1

[2H][C@@](C)(c1cccc(-c2ncc(OCC3CCN(C)CC3)cn2)c1)n1nc(-c2cccc(C#N)c2)ccc1=O [1D228]
inhibition at 0.5 µM (KDR): 5.62% | inhibition at 0.5 µM (HCK): -4.06% | inhibition at 0.5 µM (TXK): 1.29% | inhibition at 0.5 µM (HER2): 8.78% | inhibition at 0.5 µM (FGFR3): 3.05% | inhibition at 0.5 µM (ABL2): 4.45% | inhibition at 0.5 µM (PDGFRα): 8.21% | inhibition at 0.5 µM (EPHA4): -14.7% | inhibition at 0.5 µM (ROS1): 7.05% | inhibition at 0.5 µM (CSF1R): 3.21% | inhibition at 0.5 µM (EPHA1): -1.53% | inhibition at 0.5 µM (FGR): -20.7% | inhibition at 0.5 µM (ABL1): 6.37% | inhibition at 0.5 µM (MET): 98.4% | inhibition at 0.5 µM (JAK3): 0.193% | inhibition at 0.5 µM (RON): 1.38% | inhibition at 0.5 µM (SRM): 2.66% | inhibition at 0.5 µM (FYN [a]): -7.78% | inhibition at 0.5 µM (TRKA): 93.6% | inhibition at 0.5 µM (ITK): 1.6% | inhibition at 0.5 µM (MUSK): 9.13% | inhibition at 0.5 µM (FLT1): 6% | inhibition at 0.5 µM (PYK2): 1.14% | inhibition at 0.5 µM (FLT4): -3.03% | inhibition at 0.5 µM (LYNa): 27.3% | inhibition at 0.5 µM (FES): 1.05% | inhibition at 0.5 µM (EPHA5): 3.74% | inhibition at 0.5 µM (BRK): 3.19% | inhibition at 0.5 µM (TYRO3): 4.2% | inhibition at 0.5 µM (FGFR2): 1.04% | inhibition at 0.5 µM (FAK): -9.58% | inhibition at 0.5 µM (YES): 11.3% | inhibition at 0.5 µM (EPHA3): -11.8% | inhibition at 0.5 µM (JAK1): 7.19% | inhibition at 0.5 µM (EPHA6): -1.78% | inhibition at 0.5 µM (BTK): -3.81% | inhibition at 0.5 µM (TRKB): 97.1%
